Patent US11136370B2, “Compositions and methods for thrombin generation assay” (The Scripps Research Institute, priority 2016, dated 2021)

Tests used:
[1] = tested on: thrombin generation (TG); test: TG in FVII-deficient reconstituted PRP with FVIIa WT or mutants; type: biochemical, human; settings: FVII-deficient plasma
Protocol: (A) Phospholipid-free assay of FX (1 μM) to FXa conversion by the complex of 2 μM soluble rTF with 10 nM FVIIa WT, T99Y or E154A. (B) FXa generation by 50 pM phospholipid-reconstituted rTF with 200 pM FVIIa WT, T99Y or E154A added to 135 nM FX, 0.7 nM FVIII, 3 nM FV and 200 nM lepirudin (2 min, n=2-3; 4 min, n=4-5; 6 min, n=6-9). (C) WB (representing 2) of FVIII activation in reactions of 50 pM TF, 200 pM FVIIa WT or mutants, 0.7 nM FVIII, 3 nM FV and 200 nM lepirudin without/with 135 nM FX, incubated for 120 s at 37° C. […] (E) FXa generation measured in reactions as in (D) without TFPIα and in the presence of 10 nM FIXa (left, incubation 180 s; n=5-6 except=2 for E154A) or 90 nM FIX (right, incubation for 360 s; n=5-6). […] Differences were evaluated by the ANOVA/Tukey test; results at 4 and 6 min in (B) and in reactions with FIX in (E, right) were analyzed after transformation as y=log 10 y (**P<0.01, ***P<0.001).
Thrombin was quantified with a fluorogenic substrate for calculation of % inhibition. […] Endogenous thrombin potential (ETP, right) was calculated from the area under the TG curve (n=2). […] Differences were evaluated with the ANOVA/Tukey test (performed after log 10 transformation of the data shown in E); *P<0.05, ***P<0.001. […]

[2] = molecular target: thrombin (Homo sapiens, UniProt P00734); settings: 0.5 nM FIIa, 50 pM rTF, 180 s
Protocol: FVIII activation by stable FXa complexes with TF-FVIIa was tested in reactions containing FVIII, FV and lepirudin with or without TFPIα, with incubation for 30-120 s at 37° C. […] The inhibitory effect of hirugen on FVIIIa generation by FIIa was tested in reactions with 0.5 nM FIIa incubated with 50 pM rTF and FVIII for 180 s at 37° C.

[3] = tested on: thrombin generation (TG); type: biochemical, human; settings: 2 μM hirugen, PRP with CTI and anti-FXI MoAb
Protocol: TG in PRP or reconstituted PRP was evaluated as known to those skilled in the art. Native PRP was prepared from blood collected into final 12.9 mM trisodium citrate by centrifugation at 250 g for 10 min at 25° C. The platelet count was adjusted to 180×10^3/μl by dilution with homologous PPP obtained by centrifuging PRP for 10 min at 1,500 g. CTI was added at 30-50 μg/ml depending on calibrated potency as assessed by FXIIa inhibition. Reconstituted PRP was prepared with washed platelets prepared from normal PRP by adding ⅕th volume of acid citrate-dextrose (71 mM citric acid, 85 mM trisodium citrate, and 111 mM dextrose, pH 4.5) and 5 U/ml apyrase; following centrifugation at 1,500 g for 10 minutes at 25° C., the platelet pellet was resuspended into PPP lacking FVII (George King Bio-Medical) or FIX (Haematologic Technologies) to give a final platelet count of 180·103/μl PRP was mixed with varying concentrations of rTF and/or 20 pM FIXa in 96-well microtiter plates. The reaction was started by adding 18 mM CaCl2 with 360 μM of the thrombin substrate benzyloxycarbonyl-glycyl-glycyl-L-arginine coupled to the fluorogenic group 7-amido-4-methylcoumarin (Gly-Gly-Arg-AMC; Bachem Americas, Torrance, Calif.). Fluorescence was measured continuously at 37° C. for up to 40 min in a spectrofluorometer (355/460 nm excitation/emission). The rate of fluorescence intensity increase as a function of time (dF/dt) was calculated with Turbo Delphi 2006 (Borland Software Corporation, Austin, Tex.) and converted to thrombin-equivalent concentration (nM) using a calibration curve. The endogenous thrombin potential (ETP) of samples, i.e. total generated thrombin activity, was determined from the area under the TG curve. When specified, TG was measured with a discontinuous 2-stage assay with a detection limit of 5 pM. For this, TG was induced by 0.15 pM rTF and 18 mM CaCl2 in reconstituted FVII-deficient PRP including 30 μg/ml CTI with 400 pM WT FVIIa or iFVIIa without or with 20 pM FIXa. After incubation for up to 11 min at 37° C., reactions were terminated by adding 20 mM EDTA and generated thrombin was measured using the highly sensitive thrombin substrate H-D-CHA-Ala-Arg-AMC.2AcOH (Pefafluor TH, Pentapharm, Basel, Switzerland) at 50 μM concentration. In other experiments, TG was induced by TFiFVIIa-FXa-TFPI or TF-iFVIIa-FXa-NAPc2. These stable complexes were pre-formed by incubating 5 nM FXa, 10 nM TF, 10 nM iFVIIa and 40 nM TFPI or NAPc2 in the presence of 2.5 mM CaCl2 for 2 min at 37° C. Complexes were added into FVII-deficient PRP, followed by incubation for 8 min at 37° C.
PRP was prepared from blood collected into trisodium citrate (final concentration 0.0129 M) by centrifugation for at 250 g for 10 min at 25° C.; the platelet count was adjusted at 180.103 per μl by diluting with homologous platelet-poor plasma (PPP) obtained by centrifuging PRP for an additional 10 min at 1,500 g. When indicated, CTI was added at 30 to 50 μg/ml depending on calibrated potency measured by FXIIa inhibition. Reconstituted PRP was prepared by adding normal washed platelets into PPP (without or with CTI) lacking FVII, FVIII (both from George King Bio-Medical, Overland Park, Kans.) or FIX (Haematologic Technologies). […] generation in PRP was measured as described by Hemker et al. 53 μl of PRP was mixed in 96-well microtiter plates with 15 μl of a solution containing rTF and/or one of the intrinsic coagulation pathway proteases—FXIIa, FXIa or FIXa—to achieve the indicated final concentrations. Antibodies or inhibitors were also added at this point at the concentration indicated for each specific case. The reaction was started by adding between 15 and 20 μl of 100 mM CaCl2 and 2 mM fluorogenic substrate, benzyloxycarbonyl-glycyl-glycyl-L-arginine-7-amido-4-methylcoumarin (Gly-Gly-Arg-AMC; Bachem Americas, Torrance, Calif.).

63-O-Sulfo-Tyr-hirudin [hirugen]
effect on FIXa-initiated TG [1]: abolished
effect on FVIII activation by thrombin [2]: dose-dependently inhibited
effect on FIXa-dependent TG [3]: blocked
effect on TG by FIXa combined with rTF [3]: failed to inhibit
